Measured values published in ChEMBL document CHEMBL3045470, “Effect of 2-allylphenol against Botrytis cinerea Pers., and its residue in tomato fruit” (Crop Prot, 2007).
Converted amounts (≈) assume the structure as drawn.

Legend:
Format in all cases: functional, organism-based
Alternaria solani [1] = assay: Antifungal activity against Alternaria solani incubated as 10% EC formulation
Fulvia fulva [2] = assay: Antifungal activity against Passalora fulva incubated as 10% EC formulation
Botrytis cinerea [3] = assay: Antifungal activity against Botryotinia fuckeliana incubated as 10% EC formulation
Alternaria solani [4] = assay: Antifungal activity against Alternaria solani incubated as 50% WP formulation
Fulvia fulva [5] = assay: Antifungal activity against Passalora fulva incubated as 50% WP formulation
Botrytis cinerea [6] = assay: Antifungal activity against Botryotinia fuckeliana incubated as 50% WP formulation

| Structure (SMILES) | EC50 (Alternaria solani [1]) [µg/mL] | EC50 (Fulvia fulva [2]) [µg/mL] | EC50 (Botrytis cinerea [3]) [µg/mL] | EC50 (Alternaria solani [4]) [µg/mL] | EC50 (Fulvia fulva [5]) [µg/mL] | EC50 (Botrytis cinerea [6]) [µg/mL] |
| --- | --- | --- | --- | --- | --- | --- |
| C=CCc1ccccc1O [2-ALLYLPHENOL] | 31.3 (≈ 233 µM) | 52.2 (≈ 389 µM) | 21.7 (≈ 162 µM) |  |  |  |
| CC(C)NC(=O)N1CC(=O)N(c2cc(Cl)cc(Cl)c2)C1=O [IPRODIONE] |  |  |  | 56 (≈ 169 µM) | 48.9 (≈ 148 µM) | 58.6 (≈ 177 µM) |
